Measurements reported in patent publication US20220030913A1, “SUPPLEMENT FOR LIVESTOCK” (Hoxie Feedyard, LLC, priority 2020, published 2022).

Key:
[1] = 60 Day feeding study, cattle performance; format: in vivo, cattle (crossbred steers)
From the text: (§1) Feeding trials were completed with a randomized block design utilizing 4 treatments and 13 replicates per treatment. The first 20 pens (block 1, 5 replicates per treatment group) were placed first, the second 20 pens (block 2, 5 replicates per treatment group) were placed […], and the last 12 pens (block 3, 3 replicates per treatment group) were placed last. All cattle were housed within one area of the feedyard.
(§2) Crossbred steers (n=4,849) with an average weight of 590 kg+/−19.7 kg of various origins from the High Plains and Midwest were selected from within a northwest Kansas commercial feedyard. All cattle underwent the same receiving protocol and were placed in 200 head pens. All cattle were acclimated to feedlot rations and had been on feed a minimum of 60 days prior to trial enrollment. Starting rations during the initial 60 days included 75 mg/head/day tylosin (Tylan, Elanco Animal Health, Greenfield, Ind.) with 15 g/ton monensin (Rumensin, Elanco Animal Health, Greenfield, Ind.).
(§3) At 60 days of feed, 2-200 head pens were systematically allocated to 4 pens of 100 head. Two pens of 200 head were sorted at the chute into 4-100 head pens at time of terminal implant. Each 200 head pen contributed 50 head to each of the 4 pens that would be eventually allocated to treatment. This was accomplished by systematic allocation of 5 head at a time to each of the trial pens. If 200 head counts were not exactly 100 head/pen, the final allocations were that the number of animals per treatment group were similar. Once the 4-100 head pens (1 replicate) were sorted, the pens of cattle were weighed by pen, a 4% pencil shrink was applied, and pens were randomly assigned to 1 of 4 treatments: (1) Positive control (MT) 75 mg/head/day tylosin (Tylan,® Elanco Animal Health, Greenfield, Ind.) and 185 mg/head/day monensin (Rumensin,® Elanco Animal Health, Greenfield, Ind.); (2) Negative control (NO MT) fed without Rumensin® or Tylan®; (3) Decoquinate (DECO) fed 275 to 325 mg/head/day (Deccox,® Zoetis, Parsippany, N.J.); or (4) 3 g/head/day Yucca schidigera (YS) (Micro-Aid,® DPI Global, Porterville, Calif.). All cattle received an identification tag specific to the trial. Caretakers and processing staff were blinded to treatment.
All treatment groups received the same base ration (Table 1) that was balanced to provide 14% crude protein DM, […] NEg (Table 1). Rations were prepared using a stationary batcher box (Feeding Systems, Inc., Columbus, Nebr.) and loaded onto mixer/delivery trucks with box-mounted scale (Rotomix Manufacturing, Dodge City, Kans.). Treatment rations were delivered twice daily (0800 and 1300) on separate trucks to prevent cross contamination of treatment rations.
Data on cattle performance were derived from feedlot closeout reports after all pens of cattle were shipped to an abattoir. Daily dry matter intakes were recorded via bunk management personnel and entered into the computerized bunk management system. The average dry matter intake per pen over the 60-day period was retrieved from closeout data. Final body weight was calculated as (carcass weight/0.64). Average daily gain (ADG) was calculated on a pen basis using the equation ((Final body weight−Initial body weight)/days on feed). Feed conversion was calculated by dividing the […], then carcass adjusted G:F was calculated as the reciprocal of feed conversion.
Continuous variables were analyzed using PROC Glimmix (SAS 9.4, SAS Inst. Inc., Cary, N.C.). Models contained treatment as a fixed effect, block as a random effect, and pen as the experimental unit. Least squares means were compared using the PDIFF function of SAS and the Tukey-Kramer adjustment for multiple comparisons. Statistical significance was determined at P<0.05 with tendencies at 0.06>P<0.10. Liver abscess scores, yield grade, and incidence of Eimeria spss. were converted to pen level frequency percentages prior to analysis. […]

[2] = 60 Day feeding study, carcass characteristics; format: in vivo, cattle (crossbred steers); conditions: 60 day study
From the text: as §1, §2, §3
(§4) At 60±4 days of feed, all pens of cattle were shipped to the same abattoir. Hot carcass weight was collected from the plant via scale on carcass rail. Liver abscess scores were assessed by USDA trained professionals and data were collected by third party trained professionals using the liver scoring system previously described by Brown et al. (1975): 0=no abscesses, A−=2-4 abscesses under 1 inch in diameter, A=1-2 abscesses greater than 1 inch in diameter and A+=abscesses greater than 2 inches in diameter, ruptured abscess, or adhesions to body wall. Yield grade and quality grade data were collected from the abattoir by a third party.
(§5) Continuous variables were analyzed using PROC Glimmix (SAS 9.4, SAS Inst. Inc., Cary, N.C.). Models contained treatment as a fixed effect, block as a random effect, and pen as the experimental unit. Least squares means were compared using the PDIFF function of SAS and the Tukey-Kramer adjustment for multiple comparisons. Statistical significance was determined at P<0.05 with tendencies at 0.06>P<0.10. Liver abscess scores, yield grade, and incidence of Eimeria spss. were converted to pen level frequency percentages prior to analysis.

Eimeria spp. = test: 60 Day feeding study, qualitative fecal flotation for Eimeria; format: in vivo; conditions: fecal samples at 50 d of feed, samples positive for at least 1+ Eimeria
From the text: At 60 days of feed, 2-200 head pens were systematically allocated to 4 pens of 100 head. Two pens of 200 head were sorted at the chute into 4-100 head pens at time of terminal implant. Each 200 head pen contributed 50 head to each of the 4 pens that would be eventually allocated to treatment. This was accomplished by systematic allocation of 5 head at a time to each of the trial pens. If 200 head counts were not exactly 100 head/pen, the final allocations were that the number of animals per treatment group were similar. […]
Freshly voided fecal samples (n=10 per pen) were collected at 50 d of feed for fecal flotation to determine the presence of Eimeria spss. […] Qualitative fecal flotation measurements were measured on a scale of 1+ to 5+ with 1+ having <10 oocysts per slide, 3+ samples having 50-100 oocysts per slide, and 5+ having >500 oocysts/slide. This technique is considered semi-quantitative, with 3+ samples equivalent to approximately 50 oocysts/gram. […]
Continuous variables were analyzed using PROC Glimmix (SAS 9.4, SAS Inst. Inc., Cary, N.C.). […] Statistical significance was determined at P<0.05 with tendencies at 0.06>P<0.10. […]

liver abscesses = test: 60 Day feeding study, liver abscess scores at slaughter; format: in vivo, cattle (crossbred steers); conditions: 60 day study
From the text: as §1, §2, §3, §4, §5

With CCCCCCCCCCOc1cc2c(O)c(C(=O)OCC)cnc2cc1OCC [DECO, decoquinate] the “final body weight, rank among treatment groups” value ([1]; 60 day study) was “intermediate”, the “growth performance compared with MT group” value ([1]; 60 day study) was “more similar to cattle in the MT group” and the DMI ([1]; steers, average daily dry matter intake over 60-day period) was 12.1^a, b kg. For the same molecule, the “Carcass adjusted G:F” value ([1]; steers, last 60 days on feed) was 0.120 kg/kg, the “Carcass adjusted ADG” value ([1]; steers, last 60 days on feed, pen basis) was 1.47^a, b kg and the “Carcass adjusted final BW” value ([1]; steers, treatment in ration for last 60 days, final BW = carcass weight/0.64) was 681.0^a, b kg. For the same molecule, the Dressing yield [2] was 63.9^a, b %, the “HCW, rank among treatment groups” value [2] was “intermediate” and the HCW ([2]; hot carcass weight) was 435.8^a, b kg. For the same molecule, the Choice ([2]; quality grade) was 83.5%, the Prime ([2]; quality grade) was 2.4% and the Select ([2]; quality grade) was 11.9%. The Standard ([2]; quality grade) was 2.1%, the YG1 ([2]; yield grade 1, pen level frequency) was 7.0^a, c % and the YG2 ([2]; yield grade 2) was 33.8%. It also gave a YG3 ([2]; yield grade 3) of 40.8%, a YG4 ([2]; yield grade 4) of 17.1% and a YG5 ([2]; yield grade 5) of 1.3%. For the same molecule, the Eimeria spp. incidence (Eimeria spp.) was 5.0%, the Total liver abscess (liver abscesses) was 31.4^a, b % and the “incidence of liver abscesses compared with other groups” value (liver abscesses; pairwise comparisons of least squares means) was “higher than cattle in the MT group, but lower than cattle in the NO MT group”. For the same molecule, the A liver abscesses (liver abscesses; A = 1-2 abscesses greater than 1 inch) was 4.1%, the “A+ liver abscesses” value (liver abscesses; A+ = abscesses greater than 2 inches, ruptured abscess or adhesions) was 19.68^a, b % and the “A− liver abscesses” value (liver abscesses; A− = 2-4 abscesses under 1 inch) was 7.6%.
